In the test the target is tau (Homo sapiens, UniProt P10636). Description: MCE Phenols Library screening, tau biosensor cell seeding assay (AvZ). Format: cell-based. As to conditions: for Z repl 1 / Z Repl 2: Z score; for Z repl 1 / raw data 1: replicate 1; for Z Repl 2 / raw data 2: replicate 2; for AvZ (average z score of seeding, SDs from the mean level of seeding): 10 μM phenol in cell cultures, AD brain homogenate preincubated 16 hours, two biological replicates, positive = catalyzes seeding, negative = inhibits.

Where [1] appears, read: average Z score of the two replicates, MCE Phenols Library screen.
[2] abbreviates: average puncta of the two replicates.
The mark [3] stands for this setting: average Z score of the two replicates, tau seeding.

Sequence of tau (P10636 623-695 limits assumed): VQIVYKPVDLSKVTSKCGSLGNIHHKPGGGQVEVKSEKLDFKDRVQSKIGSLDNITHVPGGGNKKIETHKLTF

Consider `O=c1c(O)c(-c2ccc(O)c(O)c2)oc2c(O[C@@H]3O[C@H](CO)[C@@H](O)[C@H](O)[C@H]3O)c(O)cc(O)c12` [Gossypin], for which the “Z repl 1” value is reported as -0.561 and the “Z Repl 2” value is listed as -0.884. In addition, the “av Z” value under setting [1] was -0.722. Besides, the av puncta under setting [2] came to 11471.3. Also, under “puncta”, the “raw data 1” value came out at 19618.8 and the “raw data 2” value stood at 3323.85.
Take `Cc1cc2c(C(C)C)c(O)c(O)c(C=O)c2c(O)c1-c1c(C)cc2c(C(C)C)c(O)c(O)c(C=O)c2c1O` [Gossypol]: the “Z repl 1” value is -2.171 and the “Z Repl 2” value is given as -0.607. Moreover, the “av Z” value under setting [1] is given as -1.389. Further, the av puncta (average of raw data 1 and 2) is 3285.13. In addition, under “puncta”, the “raw data 1” value was 287.373 and the “raw data 2” value came to 6282.89.
Turning to `COc1cc2c(cc1O)CC[n+]1cc3c4c(ccc3cc1-2)OCO4` [Groenlandicine], the “Z repl 1” value was 0.553 and the “Z Repl 2” value is recorded as -0.208. Besides, the “av Z” value under setting [3] came to 0.172. This compound showed an av puncta (average of raw data 1 and 2) of 21762.9. For the setting “puncta”, the “raw data 1” value is listed as 32984.4 and the “raw data 2” value stood at 10541.3.
As for `C[C@@H]1O[C@@H](Oc2c(-c3ccc(O)cc3)oc3cc(O[C@@H]4O[C@@H](C)[C@H](O)[C@@H](O)[C@H]4O[C@@H]4O[C@H](CO)[C@@H](O)[C@H](O)[C@H]4O)cc(O)c3c2=O)[C@H](O)[C@H](O)[C@H]1O` [Grosvenorine], the “Z repl 1” value is on record as 0.758 and the “Z Repl 2” value was 0.703. Moreover, the “av Z” value (average Z score of the two replicates, tau biosensor seeding, MCE Phenols Library screen) came out at 0.73. This compound also yielded an av puncta (average of raw data 1 and 2) of 27858.6. Further, under “puncta”, the “raw data 1” value was found to be 35445.3 and the “raw data 2” value is listed as 20271.9.
For the compound `COc1ccccc1O` [Guaiacol], the “AvZ (average z score of seeding, SDs from the mean level of seeding)” value (shortened to “AvZ”) is listed as -0.653; the “Z repl 1” value is recorded as -0.724; the “Z Repl 2” value is recorded as -0.582. In addition, the av puncta under setting [2] was 12102.3. Besides, where the note is “puncta”, the “raw data 1” value was 17657.8 and the “raw data 2” value is recorded as 6546.75.
For the compound `O=c1c(O[C@@H]2OC[C@H](O)[C@H](O)[C@H]2O)c(-c2ccc(O)c(O)c2)oc2cc(O)cc(O)c12` [Guaijaverin], the “Z repl 1” value was -0.067 and the “Z Repl 2” value is listed as -0.383. Further, under setting [1], the “av Z” value is -0.225. Under setting [2], this compound displayed an av puncta of 17108.5. Further, for the setting “raw puncta”, the “raw data 1” value is recorded as 25544.8 and the “raw data 2” value is listed as 8672.24.
On to `Oc1cc2c(cc1O)[C@@H]1c3ccc(O)c(O)c3OC[C@]1(O)C2` [Hematoxylin], for which the “Z repl 1” value is listed as -1.7 and the “Z Repl 2” value is -0.865. Also, the “av Z” value under setting [1] is recorded as -1.283. Moreover, the av puncta (average of raw data 1 and 2) came to 4731.6. Further, under “puncta”, the “raw data 1” value is given as 5936.96 and the “raw data 2” value came out at 3526.25.
In the case of `O=c1c(O)c(-c2ccc(O)cc2)oc2c(O)c(O)cc(O)c12` [Herbacetin], the “AvZ” value is -1.63; the “Z repl 1” value was -2.129; the “Z Repl 2” value is -1.129. For the same compound, the “av Z” value under setting [1] was -1.629. Besides, the av puncta (average of raw data 1 and 2) is recorded as 747.252. Besides, under “puncta”, the “raw data 1” value is 787.042 and the “raw data 2” value came out at 707.463.
Turning to `Cl.Oc1ccc(CC2NCCc3cc(O)c(O)cc32)cc1` (stereo not drawn) [Higenamine (hydrochloride)], the “Z repl 1” value is given as -0.238 and the “Z Repl 2” value was -1.059. Moreover, the “av Z” value under setting [1] is recorded as -0.649. Besides, the av puncta under setting [2] is 12469.5. Besides, for the setting “puncta”, the “raw data 1” value was found to be 23487.2 and the “raw data 2” value worked out at 1451.73.
`O=c1cc(O)cc(/C=C/c2ccc(O)c(O)c2)o1` [Hispidin]: the “Z repl 1” value worked out at 0.687 and the “Z Repl 2” value is reported as -0.112. Further, the “av Z” value under setting [3] was determined as 0.287. In addition, the av puncta (average of raw data 1 and 2) came out at 23081.7. For the same compound, for the setting “puncta”, the “raw data 1” value stood at 34594.7 and the “raw data 2” value was determined as 11568.8.
In the case of `COc1cc(CNC(=O)CCCCCCCC(C)C)ccc1O` [Homodihydrocapsaicin I], the “AvZ” value is -0.169; the “Z repl 1” value is on record as -0.665; the “Z Repl 2” value worked out at 0.327. The av puncta (average of raw data 1 and 2) turned out to be 17309.6. In addition, under “puncta”, the “raw data 1” value was 18361.4 and the “raw data 2” value was found to be 16257.8.
`O=C(O)Cc1cc(O)ccc1O` [Homogentisic acid]: the “AvZ” value was -1.185; the “Z repl 1” value is -1.286; the “Z Repl 2” value is listed as -1.085. The compound further returned an av puncta (average of raw data 1 and 2) of 6046.8. For the same compound, where the note is “puncta”, the “raw data 1” value was determined as 10913.7 and the “raw data 2” value was determined as 1179.87.
Consider `COc1c(O[C@@H]2O[C@H](CO)[C@@H](O)[C@H](O)[C@H]2O)cc2oc(-c3ccc(O)cc3)cc(=O)c2c1O` [Homoplantaginin], for which the “Z repl 1” value was -0.079 and the “Z Repl 2” value is listed as -0.247. Besides, the “av Z” value (average Z score of two replicates, Phenols Library screen) is -0.163. The av puncta (average of raw data 1 and 2) is 17765.2. Moreover, for the setting “puncta”, the “raw data 1” value is given as 25406.2 and the “raw data 2” value is 10124.2.
For `COc1cc(CCO)ccc1O` [Homovanillyl alcohol], the “AvZ” value is recorded as -0.068; the “Z repl 1” value was -0.272; the “Z Repl 2” value is 0.136. This compound also returned an av puncta (average of raw data 1 and 2) of 18647.3. Further, where the note is “puncta”, the “raw data 1” value is reported as 23079.4 and the “raw data 2” value worked out at 14215.2.
Regarding `COc1cc(O)c2c(=O)cc(-c3ccc(O)c(O)c3)oc2c1` [Hydroxygenkwanin], the “Z repl 1” value is on record as -0.407 and the “Z Repl 2” value is -0.493. The “av Z” value under setting [1] is reported as -0.45. Under setting [2], this compound displayed an av puncta of 14482.9. Moreover, under “raw puncta”, the “raw data 1” value was found to be 21459.9 and the “raw data 2” value is 7505.79.
For `O=C(O)C(O)Cc1ccc(O)cc1` (stereo not drawn) [Hydroxyphenyllactic acid], the “AvZ” value amounted to 0.039; the “Z repl 1” value is -0.248; the “Z Repl 2” value came out at 0.325. For the setting “average of raw data 1 and 2”, this compound had an av puncta of 19806.4. Also, for the setting “puncta”, the “raw data 1” value is recorded as 23372.2 and the “raw data 2” value is on record as 16240.5.
Take `O=C(/C=C/c1ccc(O)cc1)C1=C(O)C(O)([C@@H]2O[C@H](CO)[C@@H](O)[C@H](O)[C@H]2O)C(O)=C([C@@H]2O[C@H](CO)[C@@H](O)[C@H](O)[C@H]2O)C1=O` (stereo partly drawn) [Hydroxysafflor yellow A]: the “Z repl 1” value was -0.826 and the “Z Repl 2” value was -0.428. For the same compound, under setting [1], the “av Z” value was -0.627. This compound registered an av puncta under setting [2] of 12310.1. In addition, for the setting “puncta”, the “raw data 1” value stood at 16428.1 and the “raw data 2” value amounted to 8192.15.
Regarding `CC(=O)OCCc1ccc(O)c(O)c1` [Hydroxytyrosol acetate], the “Z repl 1” value is listed as -0.003 and the “Z Repl 2” value is on record as -1.049. The compound further displayed an av puncta under setting [2] of 13936.9. For the same compound, under “puncta”, the “raw data 1” value came to 26308.5 and the “raw data 2” value came to 1565.31.
`OCCc1ccc(O)c(O)c1` [Hydroxytyrosol]: the “AvZ” value is -0.34; the “Z repl 1” value was -0.11; the “Z Repl 2” value is recorded as -0.571. Under setting [2], this compound had an av puncta of 15851.9. Where the note is “raw puncta”, the “raw data 1” value is 25031.1 and the “raw data 2” value amounted to 6672.58.

The values above are taken from PMC11784839, “Monoaminergic neurotransmitters are bimodal effectors of tau aggregation” (Science Advances, 2025).
